Data from patent publication US10723723B2, “Substituted bicycle heterocyclic derivatives useful as ROMK channel inhibitors” (BRISTOL-MYERS SQUIBB COMPANY, priority 2016, dated 2020).

Biological target: hROMK (human Kir1.1) (Homo sapiens (Human), UniProt P48048)
Assay: Thallium Flux Assay (FluxOR, CHO T-Rex hROMK stable cell line)
Assay type: cell-based
Conditions: CHO T-Rex hROMK cells, 10-point concentration response curve; read-out: Human ROMK TH Flux IC50

hROMK (human Kir1.1), sequence (P48048 whole entry): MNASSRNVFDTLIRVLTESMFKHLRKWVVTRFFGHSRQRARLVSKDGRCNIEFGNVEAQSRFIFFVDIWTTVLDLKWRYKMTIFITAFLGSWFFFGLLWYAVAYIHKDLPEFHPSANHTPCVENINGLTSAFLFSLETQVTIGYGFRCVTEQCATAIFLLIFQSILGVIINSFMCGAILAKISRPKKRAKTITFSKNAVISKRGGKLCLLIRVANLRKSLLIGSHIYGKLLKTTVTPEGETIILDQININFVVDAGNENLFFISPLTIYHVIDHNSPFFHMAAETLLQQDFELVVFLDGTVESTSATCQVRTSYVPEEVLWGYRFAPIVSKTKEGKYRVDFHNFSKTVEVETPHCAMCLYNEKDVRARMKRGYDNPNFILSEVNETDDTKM

Row | Compound | IC50 [nM]
1 | CCn1c(=O)oc2ccc(-n3cc(CNC[C@H](O)c4ccc5c(c4C)COC5=O)cn3)cc21 [Example 125, (R)-3-ethyl-5-(4-(((2-hydroxy-2-(4-methyl-1-oxo-1,3-dihydroisobenzofuran-5-yl)ethyl)amino)methyl)-1H-pyrazol-1-yl)benzo[d]oxazol-2(3H)-one] | 390
2 | Cc1c([C@@H](O)CNCc2c[nH]c(-c3ccc4oc(=O)n(C)c4c3)n2)ccc2c1COC2=O [Example 126, (R)-5-(4-(((2-hydroxy-2-(4-methyl-1-oxo-1,3-dihydroisobenzofuran-5-yl)ethyl)amino)methyl)-1H-imidazol-2-yl)-3-methylbenzo[d]oxazol-2(3H)-one] | 580
3 | Cc1nnn(-c2ccc(CNC[C@H](O)c3ccc4c(c3C)COC4=O)cn2)n1 [Example 127, (R)-5-(1-hydroxy-2-(((6-(5-methyl-2H-tetrazol-2-yl)pyridin-3-yl)methyl)amino)ethyl)-4-methylisobenzofuran-1(3H)-one] | 420
4 | COc1cc(-c2ncc(CNC[C@H](O)c3ccc4c(c3C)COC4=O)s2)ncc1C#N [Example 129, (R)-6-(5-(((2-hydroxy-2-(4-methyl-1-oxo-1,3-dihydroisobenzofuran-5-yl)ethyl)amino)methyl)thiazol-2-yl)-4-methoxynicotinonitrile] | 8
5 | Cc1cn(-c2cnc(CNC[C@H](O)c3ccc4c(c3C)COC4=O)cn2)cn1 [Example 141, (R)-5-(1-hydroxy-2-(((5-(4-methyl-1H-imidazol-1-yl)pyrazin-2-yl)methyl)amino)ethyl)-4-methylisobenzofuran-1(3H)-one] | 290
6 | Cc1c([C@@H](O)CNCc2cnn(-c3cc(N4CCOC4=O)ccn3)c2)ccc2c1COC2=O [Example 143, (R)-3-(2-(4-(((2-hydroxy-2-(4-methyl-1-oxo-1,3-dihydroisobenzofuran-5-yl)ethyl)amino)methyl)-1H-pyrazol-1-yl)pyridin-4-yl)oxazolidin-2-one] | 1000
7 | CNC(=O)O[C@@H](CNCc1cnn(-c2cc(C)c(C#N)cn2)c1)c1ccc2c(c1C)COC2=O [Example 144, (R)-2-(((1-(5-cyano-4-methylpyridin-2-yl)-1H-pyrazol-4-yl)methyl)amino)-1-(4-methyl-1-oxo-1,3-dihydroisobenzofuran-5-yl)ethyl methylcarbamate] | 140
8 | Cc1c([C@@H](O)CNCc2cnn(-c3ccc4oc(=O)n(C)c4n3)c2)ccc2c1COC2=O [Example 145, (R)-5-(4-(((2-hydroxy-2-(4-methyl-1-oxo-1,3-dihydroisobenzofuran-5-yl)ethyl)amino)methyl)-1H-pyrazol-1-yl)-3-methyloxazolo[4,5-b]pyridin-2(3H)-one] | 130
9 | Cc1cn(-c2ncc(CNC[C@H](O)c3ccc4c(c3C)COC4=O)cn2)c(C2CC2)n1 [Example 153, (R)-5-(2-(((2-(2-cyclopropyl-4-methyl-1H-imidazol-1-yl)pyrimidin-5-yl)methyl)amino)-1-hydroxyethyl)-4-methylisobenzofuran-1(3H)-one] | 520
10 | Cc1c([C@@H](O)CNCc2ccc(-n3cc(C(N)=O)cn3)nc2)ccc2c1COC2=O [Example 154, (R)-1-(5-(((2-hydroxy-2-(4-methyl-1-oxo-1,3-dihydroisobenzofuran-5-yl)ethyl)amino)methyl)pyridin-2-yl)-1H-pyrazole-4-carboxamide] | 1000
11 | Cc1c([C@@H](O)CNCc2cnn(-c3cc(OC(C)C)c(C#N)cn3)c2)ccc2c1COC2=O [Example 157, (R)-6-(4-(((2-hydroxy-2-(4-methyl-1-oxo-1,3-dihydroisobenzofuran-5-yl)ethyl)amino)methyl)-1H-pyrazol-1-yl)-4-isopropoxynicotinonitrile] | 31
12 | Cc1c([C@@H](O)CNCc2cnn(-c3cccc(N4CCOC4=O)c3)c2)ccc2c1COC2=O [Example 158, (R)-3-(3-(4-(((2-hydroxy-2-(4-methyl-1-oxo-1,3-dihydroisobenzofuran-5-yl)ethyl)amino)methyl)-1H-pyrazol-1-yl)phenyl)oxazolidin-2-one] | 390
